Results on four compounds are retold here after US10980776B2, “Synergistic pharmaceutical combination for the treatment of squamous cell carcinoma of head and neck” (Piramal Enterprises Limited, priority 2011, dated 2021).

Like-named read-outs stand apart in the source and are kept apart here.

The test system of experiment [1] is Detroit-562 cells. As to the kind of experiment: CCK-8 cytotoxicity assay, determination of inhibitory concentrations in Detroit-562 cells. The format is cell-based. Particulars: 72 hr; for IC50 / IC90: Homo sapiens. As to the method: (§1) Logarithmically growing cells were plated at a density of 3×10^3 cells/well and allowed to recover overnight. […] After 72 hours, cell toxicity was determined by CCK-8 (Cell Counting Kit-8) reagent (Dojindo Molecular Technologies, Japan); WST-8 (2-(2-methoxy-4-nitrophenyl)-3-(4-nitrophenyl)-5-(2, 4-disulfophenyl)]-2H-tetrazolium, monosodium salt) assay. In accordance with the manufacturer's instructions, 5 μl/well CCK-8 reagent was added and plates were incubated for 2 hours. The toxicity was determined by measuring the absorbance on Tecan Sapphire multi-fluorescence micro-plate reader (Tecan, Germany, GmbH) at a wavelength of 450 nm corrected to 650 nm and normalized to controls.
(§2) CCK-8 allows convenient assays using Dojindo's tetrazolium salt, WST [8[(2-(2-methoxy-4-nitrophenyl)-3-(4-nitrophenyl)-5-(2,4-disulfophenyl)-2H-tetrazolium, monosodium salt], which produces a water-soluble formazan dye upon bioreduction in the presence of an electron carrier, 1-Methoxy PMS. CCK-8 solution is added directly to the cells; no pre-mixing of components is required. CCK-8 is a sensitive nonradioactive colorimetric assay for determining the number of viable cells in cell proliferation and cytotoxicity assays. WST-8 is bio-reduced by cellular dehydrogenases to an orange formazan product that is soluble in tissue culture medium. The amount of formazan produced is directly proportional to the number of living cells. The detection sensitivity of cell proliferation assays using WST-8 is higher than assays using the other tetrazolium salts such as MIT, XTT, MTS or WST-1. Optical Density was determined at measurement wavelength of 450 nm and reference wave length of 630 nm.
(§3) The cells were seeded at a density of 3000 cells/well, in a 200 μL in tissue culture grade 96 well plate and were allowed to recover for 24 hrs in a humidified 5%±0.2 CO2 incubator at 37° C.±0.5° C. […] The final DMSO concentration was 0.5% in wells. Plates were incubated for 48 hrs in humidified 5%±0.2 CO2 incubator at 37±0.5° C. After 48 hrs the plates were removed from CO2 incubator and 5 μL of Cell counting Kit (CCK-8) per well was added. The same plate was kept at 37° C. for 3 hrs, and allowed to come to room temperature. The absorbance at a wavelength of 450 nm was read on Tecan safire reader. The percent cytotoxicity was calculated using the following formula.

Experiment [2] concerns FADU cells. As to the kind of experiment: CCK-8 cytotoxicity assay, determination of inhibitory concentrations in FADU cells. The format is cell-based, human. The settings on record: 72 hr; for IC50 / IC90: Homo sapiens. As for the experimental part: as §1, §2, §3
Experiment [3] concerns SCC-25 cells. As to the kind of experiment: CCK-8 cytotoxicity assay, determination of inhibitory concentrations in SCC-25 cells. In kind it is cell-based. Particulars: for IC90 / IC50: Homo sapiens. As to the method:
as §1, §2, §3

Experiment [4] deals with SCC-25 cells. As to the kind of experiment: Combination studies (single and sequential combination dosing), % cytotoxicity in SCC-25 cells. The settings on record: Homo sapiens, SCC-25, SCC-25. As to the method: as §1, §2
Sorafenib in the following dose of final concentration 0.18 μM and compound A in the following doses of final concentration 0.1 μM, 0.4 μM and 4.1 μM were analyzed in single dose and in all possible combinations of the dose range for the two anticancer agents mentioned above. The sequence of treatment is as follows; the SCC-25 cells were treated with sorafenib for 0 to 24 hrs. At the end of 24 hrs the cells were washed two times with plain MEM (minimum essential media) medium. Fresh MEM with 10% serum (200 μL/well) was added, followed by treatment with compound A from 24 hrs to 96 hrs.
Sorafenib in the following dose of final concentration 0.18 μM and compound B in the following doses of final concentration 0.2 μM, 1.1 μM and 4.8 μM were analyzed in single dose and in all possible combinations of the dose range for the two anticancer agents mentioned above. The sequence of treatment is as follows; the SCC-25 cells were treated with sorafenib for 0 to 24 hrs. At the end of 24 hrs the cells were washed two times with plain MEM medium. Fresh MEM with 10% serum (200 μL/well) was added, followed by treatment with compound B from 24 hrs to 96 hrs.
Lapatinib in the following dose of final concentration 0.2 μM and compound A in the following doses of final concentration 0.2 μM, 0.5 μM and 3.3 μM were analyzed in single dose and in all possible combinations of the dose range for the two drugs mentioned above. The sequence of treatment is as follows; the SCC-25 cells were treated with lapatinib for 0 to 24 hrs. At the end of 24 hrs the cells were washed two times with plain MEM medium. Fresh MEM with 10% serum (200 μL/well) was added, followed by treatment with compound A from 24 hrs to 96 hrs.
Lapatinib in the following dose of final concentration 0.2 μM and compound B in the following doses of final concentration 0.2 μM, 1.1 μM and 4.8 μM were analyzed in single dose and in all possible combinations of the dose range for the two drugs mentioned above. The sequence of treatment is as follows; the SCC-25 cells were treated with lapatinib for 0 to 24 hrs. At the end of 24 hrs the cells were washed two times with plain MEM medium. Fresh MEM with 10% serum (200 μL/well) was added, followed by treatment with compound A from 24 hrs to 96 hrs.

Experiment [5] relates to Detroit-562 cells. As to the kind of experiment: Combination studies (single and sequential combination dosing), % cytotoxicity in Detroit-562 cells. The settings on record: Homo sapiens, Detroit 562, Detroit-562. As for the experimental part:
as §1, §2
Sorafenib in the following dose of final concentration 1.8 μM and compound A in the following doses of final concentration 0.5 μM, 1.3 μM and 12.1 μM were analyzed in single dose and in all possible combinations of the dose range for the two anticancer agents mentioned above. The sequence of treatment is as follows; Detroit-562 cells were treated with sorafenib for 0 to 24 hrs. At the end of 24 hrs the cells were washed two times with plain MEM medium. Fresh MEM with 10% serum (200 μL/well) was added, followed by treatment with compound A from 24 hrs to 96 hrs.
Sorafenib in the following dose of final concentration 1.8 μM and compound B in the following doses of final concentration 2.7 μM, 14.1 μM and 25.2 μM were analyzed in single dose and in all possible combinations of the dose range for the two anticancer agents mentioned above. The sequence of treatment is as follows; the Detroit-562 cells were treated with sorafenib for 0 to 24 hrs. At the end of 24 hrs the cells were washed two times with plain MEM medium. Fresh MEM with 10% serum (200 μL/well) was added, followed by treatment with compound B from 24 hrs to 96 hrs.
Lapatinib in the following dose of final concentration 1 μM and compound A in the following doses of final concentration 0.5 μM, 1.3 μM and 12.1 μM were analyzed in single dose and in all possible combinations of the dose range for the two anticancer agents mentioned above. The sequence of treatment is as follows; the Detroit-562 cells were treated with lapatinib for 0 to 24 hrs. At the end of 24 hrs the cells were washed two times with plain MEM medium. Fresh MEM with 10% serum (200 μL/well) was added, followed by treatment with compound A from 24 hrs to 96 hrs.
Lapatinib in the following dose of final concentration 1.0 μM and compound B in the following doses of final concentration 2.7 μM, 14.1 μM and 25.2 μM were analyzed in single dose and in all possible combinations of the dose range for the two drugs mentioned above. The sequence of treatment is as follows; the Detroit-562 cells were treated with lapatinib for 0 to 24 hrs. At the end of 24 hrs the cells were washed two times with plain MEM medium. Fresh MEM with 10% serum (200 μL/well) was added, followed by treatment with compound A from 24 hrs to 96 hrs.

In experiment [6] the test system is FADU cells. As to the kind of experiment: cells. Particulars: Homo sapiens.

In the case of `CC(=O)O[C@@]12CO[C@@H]1C[C@H](O)[C@@]1(C)C(=O)[C@H](O)C3=C(C)[C@@H](OC(=O)[C@H](O)[C@@H](NC(=O)OC(C)(C)C)c4ccccc4)C[C@@](O)([C@@H](OC(=O)c4ccccc4)[C@H]21)C3(C)C` [Docetaxel], in experiment [1], the IC10 stood at 0.009 µM, the IC30 came to 0.3 µM, the IC70 came out at 8.7 µM and 0.85 µM corresponded to half-maximal inhibition (IC50). The compound also showed an IC90 in experiment [1] of 21.8 µM. In experiment [2], this compound registered an IC10 of 0.003 µM, a 30% effect concentration (IC30) of 0.06 µM, an IC70 of 0.71 µM and a concentration for half-maximal inhibition (IC50) of 0.16 µM. In experiment [2], this compound had an IC90 of 35.6 µM.

In experiment [1], `C#Cc1cccc(Nc2ncnc3cc(OCCOC)c(OCCOC)cc23)c1` [Erlotinib] had an IC30 of 1.4 µM, an IC70 of 6.3 µM, an IC50 of 2.3 µM and an IC90 of 10.7 µM. In experiment [2], the IC30 was 0.9 µM, the IC70 was found to be 30.7 µM, half-maximal inhibition (IC50) was put at 10.2 µM and the IC90 came out at 63 µM.

As for `CS(=O)(=O)CCNCc1ccc(-c2ccc3ncnc(Nc4ccc(OCc5cccc(F)c5)c(Cl)c4)c3c2)o1` [Lapatinib, N-(3-chloro-4-{[(3-fluorophenyl)methyl]oxy}phenyl)-6-[5-({[2-(methylsulfonyl)ethyl]amino}methyl)-2-furanyl]-4-quinazolinaminebis(4-methylbenzenesulfonate)monohydrate], the IC90 is 9.9 µM in experiment [3] (SCC-25 cells, 72 hr); 12.6 µM in experiment [1]; 14.3 µM in experiment [2]. The IC50 in experiment [3] (SCC-25 cells, 72 hr, read-out: IC50) turned out to be 0.5 µM; in experiment [1] it was 3.9 µM; in experiment [2] it was 2.6 µM. Moreover, the IC30 stood at 0.2 µM in experiment [3] (SCC-25 cells, 72 hr); 1.0 µM in experiment [1]; 0.8 µM in experiment [2]. Further, the IC70 in experiment [3] (SCC-25 cells, 72 hr) was 3.3 µM; in experiment [1], 7.6 µM; in experiment [2] it was 8.7 µM. Moreover, the cytotoxicity at 0.2 µM in experiment [4] (single agent at IC30 (lapatinib 0.2 μM; compound A 0.2 μM)) and in experiment [4] (single agent at IC30 (lapatinib 0.2 μM; compound B 0.2 μM)) was 17% throughout. For the same compound, the cytotoxicity at 1 µM in experiment [5] (single agent at IC30 (lapatinib 1 μM; compound A 0.5 μM)) and in experiment [5] (single agent at IC30 (lapatinib 1.0 μM; compound B 2.7 μM)) was 16% each time. The cytotoxicity at 0.8 µM in experiment [6] (single agent at IC30 (lapatinib 0.8 μM; compound A 0.2 μM)) and in experiment [6] (single agent at IC30 (lapatinib 0.8 μM; compound B 2.3 μM)) was 19% throughout.

Consider `CNC(=O)c1cc(Oc2ccc(NC(=O)Nc3ccc(Cl)c(C(F)(F)F)c3)cc2)ccn1.Cc1ccc(S(=O)(=O)O)cc1` [Sorafenib, 4-(4-{3-[4-chloro-3-(trifluoromethyl)phenyl]ureido}phenoxy)N^2-methylpyridine-2-carboxamide-4-methylbenzenesulfonate], for which the IC50 in experiment [3] (SCC-25, 72 h) was 2.7 µM; in experiment [1] it was 6.1 µM; in experiment [2], 8.4 µM. In addition, the IC90 is 11.7 µM in experiment [3] (SCC-25 cells, 72 hr); 15.3 µM in experiment [1]; 30.6 µM in experiment [2]. Further, the IC30 in experiment [3] (SCC-25 cells, 72 hr) was 0.18 µM; in experiment [1] it was 1.8 µM; in experiment [2], 3.9 µM. Moreover, the IC70 worked out at 6.8 µM in experiment [3] (SCC-25 cells, 72 hr); 11.2 µM in experiment [1]; 14.8 µM in experiment [2]. The cytotoxicity at 0.18 µM in experiment [4] (single agent at IC30 (sorafenib 0.18 μM; compound A 0.1 μM)) and in experiment [4] (single agent at IC30 (sorafenib 0.18 μM; compound B 0.2 μM)) was 13% in each case. Further, the cytotoxicity at 1.8 µM came to 14% in experiment [5] (single agent at IC30 (sorafenib 1.8 μM; compound A 0.5 μM)) and 13% in experiment [5] (single agent at IC30 (sorafenib 1.8 μM; compound B 2.7 μM)). The cytotoxicity at 3.9 µM in experiment [6] (single agent at IC30 (sorafenib 3.9 μM; compound A 0.2 μM)) and in experiment [6] (single agent at IC30 (sorafenib 3.9 μM; compound B 2.3 μM)) was 21% in each case.
